Legend:
S1P5 receptor = S1P5 receptor (Homo sapiens (Human), UniProt Q9H228); experiment: Antagonist assay (FLIPR TETRA, inhibition of reference agonist EC80) on S1P5; format: cell-based; conditions: tested as the citrate salt
Experimental: (§1) Antagonist percentage inhibition determinations were obtained by assaying sample compounds and referencing the control (EC80) wells for each profiled (GPCR) which evaluated binding to S1P2 and S1P5 receptors. The samples were run using a single addition assay protocol. The protocol design is as follows.
(§2) Unless specified otherwise, the sample compounds were diluted in 100% anhydrous DMSO including all dilutions. The compounds were tested as the citrate salt (1 equivalent per molecule). If the sample compound is provided in a different solvent all master stock dilutions are performed in the specified solvent. All control wells contained identical solvent final concentrations as the sample compound wells.
(§3) The sample compounds were transferred from a master stock solution into a daughter plate that was used in the assay. Each sample compound was diluted into an assay buffer (1×HBSS with 20 mM HEPES, 2.5 mM Probenecid, and 0.4% Free Fatty Acid BSA) at an appropriate concentration to obtain final specified concentrations.
(§4) Using the EC80 values that were determined real-time, stimulated all pre-incubated sample compounds and reference antagonists (if applicable) were compared with the EC80 values of reference agonist. These were read for 180 seconds using the FLIPR^TETRA (This assay added reference agonist to respective wells-then fluorescences measurements were collected to calculate IC50 values). All plates were subjected to appropriate baseline corrections. Once baseline corrections were processed, maximum fluorescence values were exported and data manipulated to calculate percentage activation, percentage inhibition and Z′.

S1P2 receptor = S1P2 receptor (Homo sapiens (Human), UniProt O95136); experiment: Antagonist assay (FLIPR TETRA, inhibition of reference agonist EC80) on S1P2; format: cell-based; conditions: tested as the citrate salt
Sequence of S1P2 receptor (O95136 whole entry): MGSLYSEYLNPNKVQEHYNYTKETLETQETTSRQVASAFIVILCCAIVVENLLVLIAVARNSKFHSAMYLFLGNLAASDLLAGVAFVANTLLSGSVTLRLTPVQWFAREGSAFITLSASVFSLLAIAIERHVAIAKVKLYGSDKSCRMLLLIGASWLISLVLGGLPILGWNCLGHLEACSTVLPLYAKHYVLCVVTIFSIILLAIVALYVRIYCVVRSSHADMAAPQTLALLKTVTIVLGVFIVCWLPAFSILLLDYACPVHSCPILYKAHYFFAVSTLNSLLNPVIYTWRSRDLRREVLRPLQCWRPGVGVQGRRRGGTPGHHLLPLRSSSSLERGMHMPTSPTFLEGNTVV
Experimental: as §1, §2, §3, §4

[1] = In vitro plasma protein binding; format: in vitro ADME, mouse; conditions: mouse plasma, test concentration 5 nM

Sequence of S1P5 receptor (Q9H228 whole entry): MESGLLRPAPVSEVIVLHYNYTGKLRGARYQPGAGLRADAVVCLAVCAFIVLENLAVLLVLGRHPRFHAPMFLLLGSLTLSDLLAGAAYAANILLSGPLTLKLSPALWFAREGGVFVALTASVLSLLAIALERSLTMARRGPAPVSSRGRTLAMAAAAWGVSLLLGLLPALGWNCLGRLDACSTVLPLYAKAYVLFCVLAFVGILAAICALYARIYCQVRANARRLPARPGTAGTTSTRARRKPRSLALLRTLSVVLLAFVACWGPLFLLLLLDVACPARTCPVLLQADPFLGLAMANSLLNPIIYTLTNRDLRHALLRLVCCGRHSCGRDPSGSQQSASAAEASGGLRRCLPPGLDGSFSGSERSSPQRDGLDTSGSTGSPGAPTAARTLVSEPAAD

COCCOc1cc(NC(=O)NN(CCO)c2cc(C(C)C)c3c(C)nn(C)c3n2)cc(Cl)n1 [Compound 37]
IC50 (S1P5 receptor): > 10000 nM | IC50 (S1P2 receptor): 160 nM

CCNc1cc(NC(=O)NN(CCO)c2cc(C(C)C)c3c(C)nn(C)c3n2)cc(Cl)n1 [Compound 38]
IC50 (S1P5 receptor): 4.6 nM | IC50 (S1P2 receptor): 4 nM

CCN(C)c1cc(NC(=O)NN(CCO)c2cc(C(C)C)c3c(C)nn(C)c3n2)cc(Cl)n1 [Compound 39]
IC50 (S1P5 receptor): 40 nM | IC50 (S1P2 receptor): 19 nM

Cc1nn(C)c2nc(N(CCO)NC(=O)Nc3cnc(Cl)c(Cl)c3)cc(C(C)C)c12 [Compound 40]
IC50 (S1P5 receptor): > 10000 nM | IC50 (S1P2 receptor): 300 nM

Cc1nn(C)c2nc(N(CCO)NC(=O)Nc3ccc(Cl)nc3Cl)cc(C(C)C)c12 [Compound 41]
IC50 (S1P5 receptor): > 10000 nM | IC50 (S1P2 receptor): > 10000 nM

Cc1nn(C)c2nc(N(CCO)NC(=O)Nc3cc(Cl)c(Cl)s3)cc(C(C)C)c12 [Compound 42]
IC50 (S1P5 receptor): 290 nM | IC50 (S1P2 receptor): 64 nM

Cc1sc(NC(=O)NN(CCO)c2cc(C(C)C)c3c(C)nn(C)c3n2)cc1Cl [Compound 43]
IC50 (S1P5 receptor): > 10000 nM | IC50 (S1P2 receptor): 360 nM

Cc1nn(C)c2nc(N(CCO)NC(=O)Nc3cc(Cl)cc(C(F)(F)F)c3)cc(C(C)C)c12 [Compound 44]
IC50 (S1P5 receptor): 74 nM | IC50 (S1P2 receptor): > 120 nM

Cc1nn(C)c2nc(N(CCO)NC(=O)Nc3cc(Cl)no3)cc(C(C)C)c12 [Compound 45]
IC50 (S1P5 receptor): > 10000 nM | IC50 (S1P2 receptor): > 10000 nM

CC(C)NCC(O)COc1cccc2ccccc12 (stereo not shown) [Propanolol, reference compound]
mean fraction bound (%) [1]: 87.4%

Reference: US9663511B2, “Sphingosine 1-phosphate receptor antagonists” (ARROYO BIOSCIENCES, LLC, priority 2012, dated 2017)
